Broadly, the EC50 is the concentration giving half of the maximal effect. Broadly, the logD is the decadic logarithm of the distribution of all forms, ionised or not, between an organic phase and buffer at a given pH. Read a low logD as a more hydrophilic compound. As usually defined, the half-life is the time needed for the level to fall by half in the phase considered. A low value points to rapid decline. The Cmax is the peak of the concentration-time curve. Usually Tmax stands for the time at which the peak concentration occurs. As a reminder, the AUC(0-inf) is total exposure, with the tail of the curve extrapolated. For orientation: bioavailability means dose-corrected exposure relative to a reference, in per cent. High values mean much systemic uptake, low ones little systemic uptake.

The record followed here is ChEMBL document CHEMBL5113429, “Diazepinone HBV capsid assembly modulators” (Bioorg Med Chem Lett, 2022).

Data set [1] in a line: Intrinsic clearance in human liver microsomes. The note with it: read-out: CLH. The class given is ADME, Microsome.
Data set [2] is described as follows: Thermodynamic solubility in pH 7 buffer. It is filed as physicochemical. The note with it: read-out: Therm_solubility.
The nature of data set [3]: Modulation of capsid assembly in HBV infected in human HepG2.2.15 cells assessed as inhibition of viral DNA replication.
The target in data set [4] is Core antigen (Hepatitis B virus) (UniProt Q03732). The data set can be described thus: Ratio of EC50 for modulation of capsid assembly in HBV infected in human HepG2.2.15 cells in presence of 40% normal human serum to EC50 for modulation of capsid assembly in HBV infected in human HepG2.2.15 cells in absence of 40% normal human serum. The class given is cell-based.
Data set [5] is described as follows: Intrinsic clearance in rat liver microsomes. The class given is ADME, Microsome. The note with it: read-out: CLH. (In general: Liver microsomes are vesicles of endoplasmic reticulum, rich in cytochrome P450 enzymes.)
Data set [6] in a line: Intrinsic clearance in mouse liver microsomes. The class given is ADME, Microsome. The note with it: read-out: CLH.
Data set [7] in a line: Intrinsic clearance in dog liver microsomes. The class given is ADME, Canis lupus familiaris, Microsome. The note with it: read-out: CLH.
Data set [8] in a line: Lipophilicity, log D of compound. It is filed as physicochemical. The note with it: octanol/water.
The nature of data set [9]: Protein binding in human plasma. The class given is ADME, cell-free. The note with it: read-out: PPB (converted).
The nature of data set [10]: Protein binding in rat plasma. It is filed as ADME, cell-free. The note with it: read-out: PPB (converted).
Data set [11] in a line: Protein binding in mouse plasma. The class given is ADME, cell-free. The note with it: read-out: PPB (converted).
A short description of data set [12]: Protein binding in dog plasma. It is filed as ADME, cell-free, Canis lupus familiaris. The note with it: read-out: PPB (converted).
Data set [13] is described as follows: Intrinsic clearance in human hepatocytes. The note with it: read-out: CLH. The class given is ADME, cell-based, Hepatocyte.
Data set [14] in a line: Intrinsic clearance in dog hepatocytes. The note with it: read-out: CLH. It is filed as ADME, cell-based, Canis lupus familiaris, Hepatocyte.
Data set [15] in a line: Intrinsic clearance in rat hepatocytes. The class given is ADME, cell-based, Hepatocyte. The note with it: read-out: CLH.
The nature of data set [16]: Intrinsic clearance in mouse hepatocytes. It is filed as ADME, cell-based, Hepatocyte. The note with it: read-out: CLH.
The nature of data set [17]: Volume of distribution at steady state in mouse at 10 mg/kg, po or 2.5 mg/kg, iv. It is filed as ADME, organism-based. The note with it: in vivo.
Data set [18] can be described thus: Half life in mouse at 10 mg/kg, po or 2.5 mg/kg, iv. The class given is ADME, organism-based. The note with it: in vivo.
A short description of data set [19]: Cmax in mouse at 10 mg/kg, po. It is filed as ADME, organism-based. Also noted: dose 10 mg/kg, route po. The note with it: in vivo.
The nature of data set [20]: Tmax in mouse at 10 mg/kg, po. It is filed as ADME, organism-based. The note with it: in vivo.
Data set [21] in a line: AUC (0 to infinity) in mouse at 10 mg/kg, po. The class given is ADME, organism-based. Also noted: time infinity, dose 10 mg/kg, route po. The note with it: in vivo.
Data set [22] in a line: Oral bioavailability in mouse at 10 mg/kg. The note with it: in vivo. It is filed as ADME, organism-based.
Data set [23] in a line: Volume of distribution at steady state in rat at 5 mg/kg, po or 1.25 mg/kg, iv. The class given is ADME, organism-based. The note with it: in vivo.
Data set [24] in a line: Half life in rat at 5 mg/kg, po or 1.25 mg/kg, iv. The class given is ADME, organism-based. The note with it: in vivo.
The nature of data set [25]: Cmax in rat at 5 mg/kg, po. It is filed as ADME, organism-based. Set-up: dose 5 mg/kg, route po. The note with it: in vivo.
A short description of data set [26]: Tmax in rat at 5 mg/kg, po. The class given is ADME, organism-based. The note with it: in vivo.
Data set [27] can be described thus: AUC (0 to infinity) in rat at 5 mg/kg, po. The class given is ADME, organism-based. Also noted: time infinity, dose 5 mg/kg, route po. The note with it: in vivo.
Data set [28] is described as follows: Oral bioavailability in rat at 5 mg/kg. The note with it: in vivo. The class given is ADME, organism-based.
Data set [29] can be described thus: Volume of distribution at steady state in Beagle dog at 2.5 mg/kg, po or 0.5 mg/kg, iv. It is filed as ADME, organism-based, Canis lupus familiaris. The note with it: in vivo.
The nature of data set [30]: Half life in Beagle dog at 2.5 mg/kg, po or 0.5 mg/kg, iv. It is filed as ADME, organism-based, Canis lupus familiaris. The note with it: in vivo.
Data set [31] in a line: Cmax in Beagle dog at 2.5 mg/kg, po. The class given is ADME, organism-based, Canis lupus familiaris. Also noted: dose 2.5 mg/kg, route po. The note with it: in vivo.
Data set [32] in a line: Tmax in Beagle dog at 2.5 mg/kg, po. It is filed as ADME, organism-based, Canis lupus familiaris. The note with it: in vivo.
Data set [33] is described as follows: AUC (0 to infinity) in Beagle dog at 2.5 mg/kg, po. The note with it: in vivo. Set-up: time infinity, dose 2.5 mg/kg, route po. The class given is ADME, organism-based, Canis lupus familiaris.
A short description of data set [34]: Oral bioavailability in Beagle dog at 2.5 mg/kg. The class given is ADME, organism-based, Canis lupus familiaris. The note with it: in vivo.

Values after ≈ are worked out from the molar mass of the structure shown.

Sequence of Core antigen (Hepatitis B virus) (Q03732 as listed by the source): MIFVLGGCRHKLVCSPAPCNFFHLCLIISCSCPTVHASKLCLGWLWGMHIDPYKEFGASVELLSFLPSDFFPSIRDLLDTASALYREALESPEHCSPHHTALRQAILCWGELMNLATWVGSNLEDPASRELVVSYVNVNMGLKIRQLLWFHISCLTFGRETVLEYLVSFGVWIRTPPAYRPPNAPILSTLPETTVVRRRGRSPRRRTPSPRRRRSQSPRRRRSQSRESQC

For `CN1CC(F)Cn2nc3c(c2C1=O)CN(C(=O)Nc1ccc(F)c(Br)c1)CC3` (racemic), the CLint scaled in data set [1] was 22 mL/min/kg. Further, the solubility thermodynamic in data set [2] is 191 µM (≈ 86.8 µg/mL).

In the case of `CN1CC(N(C)C)Cn2nc3c(c2C1=O)CN(C(=O)Nc1ccc(F)c(Cl)c1)CC3` (racemic), the CLint scaled in [1] was determined as 14 mL/min/kg. Further, in data set [2], the solubility thermodynamic was determined as 187 µM (≈ 81.3 µg/mL).

Take `CN1CC(F)Cn2nc3c(c2C1=O)CN(C(=O)Nc1ccnc(Br)c1F)CC3` (racemic): the CLint scaled in data set [1] amounted to 5 mL/min/kg. Moreover, the solubility thermodynamic in [2] is 170 µM (≈ 77.4 µg/mL).

On to `CN1C(=O)c2c3c(nn2CCC1CO)CCN(C(=O)Nc1ccc(F)c(Cl)c1)C3` (racemic), for which, in [1], the CLint scaled amounted to 9 mL/min/kg. Further, the solubility thermodynamic in data set [2] came to 189 µM (≈ 79.7 µg/mL).

In the case of `CN1CC(CO)Cn2nc3c(c2C1=O)CN(C(=O)Nc1ccc(F)c(Cl)c1)CC3` (racemic), the CLint scaled in data set [1] was below 5 mL/min/kg. Moreover, in data set [2], the solubility thermodynamic is 191 µM (≈ 80.6 µg/mL).

As to `CN1CC(F)Cn2nc3c(c2C1=O)CN(C(=O)Nc1ccc(F)c(C#N)c1)CC3` (racemic), the CLint scaled in data set [1] is 5.2 mL/min/kg. Moreover, the solubility thermodynamic in data set [2] was found to be 179 µM (≈ 71.7 µg/mL).

`CN1CCCCn2nc3c(c2C1=O)CN(C(=O)Nc1ccc(F)c(Cl)c1)CC3`: the CLint scaled in [1] is 16 mL/min/kg. In [2], the solubility thermodynamic is above 200 µM.

For `CN1CC(OCC(F)F)Cn2nc3c(c2C1=O)CN(C(=O)Nc1ccc(F)c(Cl)c1)CC3` (racemic), in data set [1], the CLint scaled came out at 5.4 mL/min/kg. In [2], the solubility thermodynamic stood at 181 µM (≈ 85.4 µg/mL).

In the case of `CN1CCC(CO)n2nc3c(c2C1=O)CN(C(=O)Nc1ccc(F)c(Cl)c1)CC3` (racemic), in data set [1], the CLint scaled was 4.7 mL/min/kg. Besides, the solubility thermodynamic in [2] was determined as 195 µM (≈ 82.3 µg/mL).

Take `CN1CCCn2nc3c(c2C1=O)CN(C(=O)Nc1ccc(F)c(Cl)c1)CC3`: the CLint scaled in [1] turned out to be 11 mL/min/kg. The solubility thermodynamic in data set [2] is 195 µM (≈ 76.4 µg/mL).

`CN1CC(F)Cn2nc3c(c2C1=O)CN(C(=O)Nc1ccc(F)c(Cl)c1)CC3` (racemic): the CLint scaled in [1] came to 12 mL/min/kg. In addition, the solubility thermodynamic in [2] was determined as 183 µM (≈ 75 µg/mL).

For `CN1CC(F)(F)Cn2nc3c(c2C1=O)CN(C(=O)Nc1ccc(F)c(Cl)c1)CC3`, the CLint scaled in data set [1] was 8.1 mL/min/kg. Also, the solubility thermodynamic in data set [2] was 181 µM (≈ 77.4 µg/mL).

As to `CN1CC(C(F)F)Cn2nc3c(c2C1=O)CN(C(=O)Nc1ccc(F)c(Cl)c1)CC3` (racemic), in data set [1], the CLint scaled stood at 15 mL/min/kg. The solubility thermodynamic in [2] was determined as 175 µM (≈ 77.3 µg/mL).

`CN1OC(CO)Cn2nc3c(c2C1=O)CN(C(=O)Nc1ccc(F)c(Cl)c1)CC3` (racemic): the CLint scaled in data set [1] is below 7 mL/min/kg. In [2], the solubility thermodynamic came out at 169 µM (≈ 71.6 µg/mL). Further, in data set [3], the EC50 worked out at 9 nM.

For the molecule `C[C@@H]1Cc2nn3c(c2CN1C(=O)Nc1ccc(F)c(C#N)c1)C(=O)N(C)C[C@@H](F)C3`, the CLint scaled is below 6 mL/min/kg in data set [1]; 44 mL/min/kg in data set [5]; 28 mL/min/kg in data set [6]; below 6 mL/min/kg in data set [7]; 7.7 mL/min/kg in data set [13]; below 6.4 mL/min/kg in data set [14]. Further, the CLint scaled came to 57 mL/min/kg in data set [15] and 101 mL/min/kg in [16]. Moreover, in [2], the solubility thermodynamic was 72 µM (≈ 29.8 µg/mL). In addition, the Ratio EC50 in data set [4] is 1.5. In addition, the logD in data set [8] was determined as 1.95. The fraction unbound in data set [9] was 0.19; in [10] it was 0.38; in data set [11], 0.34; in data set [12], 0.23. For the same molecule, the Vdss worked out at 0.99 L/kg in data set [17], 2.09 L/kg in data set [23] and 1 L/kg in data set [29]. Also, the half-life in data set [18] was 0.51 h; in data set [24], 1.92 h; in data set [30] it was 4.3 h. The Cmax in data set [19] was 1270 ng/mL; in [25] it was 98 ng/mL; in data set [31] it was 1150 ng/mL. For the same molecule, the time to peak (Tmax) in data set [20] was determined as 0.5 h; in data set [26], 1.33 h; in [32], 2 h. Moreover, the AUC(0-inf) was 1930 ng·h/mL in data set [21], 697 ng·h/mL in [27] and 7000 ng·h/mL in data set [33]. The bioavailability turned out to be 44% in data set [22], 54% in data set [28] and 47% in data set [34].

With `C[C@@H]1Cc2nn3c(c2CN1C(=O)Nc1ccc(F)c(C#N)c1)C(=O)N(C)C[C@H](F)C3`, the values for the CLint scaled in data set [1], in data set [5] and in data set [7] were below 6 mL/min/kg, 31 mL/min/kg and below 8 mL/min/kg, respectively. The molecule also showed a logD in data set [8] of 1.96.

In the case of `CN1CC(F)Cn2nc3c(c2C1=O)CN(C(=O)Nc1ccc(F)c(C(F)(F)F)c1)CC3` (racemic), in [1], the CLint scaled amounted to 17 mL/min/kg. In data set [2], the solubility thermodynamic stood at 175 µM (≈ 77.6 µg/mL).

On to `CN1CCn2nc3c(c2C1=O)CN(C(=O)Nc1ccc(F)c(Cl)c1)CC3`, for which the CLint scaled in data set [1] amounted to 26 mL/min/kg. For the same molecule, the solubility thermodynamic in [2] came out at 179 µM (≈ 67.6 µg/mL).

For the molecule `C[C@@H]1Cc2nn3c(c2CN1C(=O)Nc1ccc(F)c(C#N)c1)C(=O)N(C)O[C@@H](CF)C3`, in data set [4], the Ratio EC50 turned out to be 2.

Regarding `CC1CN(C)C(=O)c2c3c(nn2C1)CCN(C(=O)Nc1ccc(F)c(Cl)c1)C3` (racemic), in data set [1], the CLint scaled was 28 mL/min/kg. Besides, the solubility thermodynamic in data set [2] came to 182 µM (≈ 73.9 µg/mL).
